Reference: patent publication US20200368272A1, “COMPOSITION FOR AMELIORATING POST-CEREBRAL STROKE SEQUELA” (MiZ Company Limited, priority 2019, published 2020)

Key:
[1] = tested on: sequelae of cerebellar hemorrhage (loss of motor control, language disorder) in a person
Procedure: A person was hospitalized after developing cerebellar hemorrhage about eight years ago, then was transferred to a rehabilitation hospital after discharge to receive rehabilitation, which they are continuing to this day.
The inhalation of molecular hydrogen was performed daily for the first 2 months, 1 to 1.5 hours in the morning and 1 to 1.5 hours in the evening, then daily for 1 month, 2 to 3 hours in the morning and 2 to 3 hours in the evening, and finally daily for 1 month, 1 hour in the morning and 1 hour in the evening.

[2] = normal temperature and pressure; also printed as 1.6 mg/L; cited from earlier work

SMILES: [HH] [molecular hydrogen]
- articulation (language disorder) ([1]; approximately one month after inhaling): improved
- time needed to walk a distance that previously took 20 minutes ([1]; approximately one month after inhaling, about 6 to 7.5 vol % H2): about 10 minutes
- speech ([1]; approximately three months after inhalation): their speech became even more audible
- motor and daily-life abilities ([1]; approximately two months after inhalation): able to talk while walking, their stride during rehabilitation lengthened
- concentration at which hydrogen dissolves in water [2]: about 1.6 ppm
